Patent publication US11541044B2, “K-Ras modulators” (The Regents of the University of California, priority 2015, dated 2023)
“Also recorded” adds a separate entry of the source.

Legend:
fmeKRAS4b = target: T1, fmeKRAS4b (Homo sapiens, UniProt P01116); assay: MALDI-TOF analysis of modification of processed (farnesylated, carboxymethylated) KRAS4b; type: binding
T1 construct: GG (two N-terminal glycines in place of Met1, remnant of the construct) (N); made in house; host or cells: SF9 insect cells
Procedure: FIG. 36. Modification of fmeKRAS4b by FB9. Recombinant fmeKRAS4b was loaded with GDP or GppNHp (a nonhydrolyzable analogue of GTP), then reacted with FB9 at 37° C. for 100 min.
Modification of processed (farnesylated and carboxylmethylated KRAS4b). Protein prep GG-HsKRAS-4b, RP1151105092454 FmeKRAS4b (FIG. 47A) was modified by FB9 with 7.6-fold molar excess of FB9 for 1 h at 37° C., followed by 16 h at room temperature (22° C.). […] To identify the modified amino acid residues protein preparation was digested by trypsin.
During fragmentation, these modified peptides yielded intensive fragment corresponding to unmodified peptide and fragments of peptide (mostly without modification).
These peptides were modified on His residues. To identify which His was modified (i.e. 95 or 96 in the sequence of used recombinant KRAS) fragmentation spectra were analyzed in BioTools when FB9 modification (C17H20Cl1N2O4, 350/351) was set on one of these His residues in Sequence Editor.
In fragmentation spectrum of 1554 a fragment 825.409 was present but not in a spectrum of 1203. When FB9 modification was on His-7 this fragment was assigned by BioTools as modified y-3. Manual examination of the spectrum confirmed this conclusion.

[1] = tested on: Ras-less cells exogenously expressing K-Ras G12D; assay: EGF stimulation plus FB9 in G12D expressing RAS-less MEFS; type: cell-based; settings: EGF for 30 and 60 minutes, FB9 at various concentrations
Procedure: FIG. 22. Cell Based Assays with G12D expressing RAS-less MEFS; Ras-less cells exogenously expressing K-Ras G12D were stimulated with EGF for 30 and 60 minutes. Concomitantly FB9 was added at various concentrations. Similar experiments were done with pancreatic cell lines expressing various oncogenic mutations. […] Growth curves were also performed.

K-Ras G12D = target: T2, K-Ras G12D (Homo sapiens, UniProt P01116, G12D); assay: Covalent binding of electrophile compounds to K-Ras G12D (mass spectrometry)
T2 construct: Rec full length G12D became loaded with either GDP or GTPyS and Mg2+; His tag
Procedure: FIGS. 13A-13E. […] FIG. 13B and FIG. 13D were performed after 5 hours. FIG. 13C and FIG. 13E were performed at 23 hours.
FIGS. 15A-15D. Experiments with Stereoisomers of Difluorophenoxy-6B9; Kras G12D/GTPyS/Mg2+, DMSO control, 2 h incubation at RT; The binding of FB9 to Kras G12D was compared with the stereoisomers of Difluorophenoxy-6B9 (53, 54); FB9 bound 100% after 2 h incubation; Difluorophenoxy-6B9 (compound ‘53’) bound to about 62% compared to FB9 under the same condition; The stereoisomer (‘54’) of compound ‘53’ bound to roughly 35% compared to FB9 which is roughly 50% of compound ‘53’; Partial stereospecific interaction.

[2] = target: T3, KRAS4b (1-188), unprocessed (Homo sapiens, UniProt P01116); assay: MALDI-TOF analysis of modification of unprocessed KRAS4b; type: binding
T3 construct: G (one extra N-terminal glycine before Met1, remnant of the construct) (N); made in house; host or cells: E. coli
Procedure: FIG. 27. Comparing Gel Mobility and Antibody Reactivity of Different Purified K-Ras 4B Forms. E. Coli: unprocessed K-ras 4B purified from E. coli. Fme: processed K-ras 4B purified from SF9 cells. FB9: unprocessed K-ras 4B labeled with FB9 to about 70%.
Chemical modification of unprocessed KRAS-4b at His-95 (protein G-Hs.KRAS4b(1-188), mass (average) 21481.59 Da.
KRAS4b (FIG. 43) was modified by FB9 in vitro (using 8.8-fold molar excess of FB9 for 1 h at 37° C., followed by 16 h at room temperature, 22° C.). […] Molecular species with 1 and 2 and 3 modification groups were present (FIG. 44).
To identify the modified amino acid residues, the protein preparation was digested by protease Glu-C. […] Peptide with m/z 1735 corresponds to sequence GKKKKKKSKTKCVIM (SEQ ID NO: 3) (174-189) and m/z 2085 corresponds to the same peptide modified by FB9 at Cys-186 (confirmed by fragmentation).
To identify other potential residues modified by FB9, peptides obtained after digestion by Glu-C were further digested by trypsin (FIG. 46A).

Kras = assay: Interaction of FB9 with Kras in the absence or presence of BME; type: binding, human; settings: RT
[3] = Reactivity of FB9 with BME; type: physicochemical; settings: 1 mM FB9, 5 mM BME, 37° C., 55 minutes
Procedure: FIGS. 20A-20C. Reactivity of Tetrafluorophenoxy-6B9 (FB9) with BME; experiment was done with 1 mM FB9 and minus or plus 5 mM BME at 37° C.

Structure (SMILES): COc1ccc(Cl)cc1C(=O)N1CCC[C@H](C(=O)NCC(=O)COc2c(F)c(F)cc(F)c2F)C1 [FB9, (3S)-1-[(5-Chloro-2-methoxyphenyl)carbonyl]-N-[2-oxo-3-(2,3,5,6-tetrafluorophenoxy)propyl]piperidine-3-carboxamide]
- extent of chemical modification of FmeKRAS4b (fmeKRAS4b; 7.6-fold molar excess of FB9, 1 h at 37° C., then 16 h at 22° C.): major form represented species with 1 added modification group
- covalent modification, GDP versus GppNHp loaded protein (fmeKRAS4b; 37° C. for 100 min, 350 Da mass addition): more pronounced when GTP analogue was present
- residue modified in FME-Kras4B (fmeKRAS4b; recombinant farnesylated-carboxymethylated protein): covalently modifies histidine 95 residue (H95); also recorded: His7 (i.e. H95 in the native protein) is modified
- K-Ras protein levels [1]: Changes at K-Ras protein levels are visible
- bound better than enantiomer FB9D (K-Ras G12D; K-Ras (G12D), GTPyS/Mg, 50 μM for 2.5 h at RT): 25-30%
- labelling at a second site (K-Ras G12D; K-Ras/GDP/Mg2+, 5 h): significantly labelled at a second site after 5 h
- bound to Kras G12D (K-Ras G12D; Kras G12D/GTPyS/Mg2+, 2 h incubation at RT): 100%
- binding to GTPyS versus GDP bound K-Ras G12D (K-Ras G12D; ~10 μM protein, 100 μM compound, RT, 5 and 23 hours): bound better when K-Ras was in complex with GTPyS/Mg2+
- extent of chemical modification of unprocessed KRAS4b ([2]; 8.8-fold molar excess of FB9, 1 h at 37° C., then 16 h at 22° C.): close to complete
- unprocessed K-ras 4B labeled with FB9 ([2]; protein preparation used for gel mobility comparison): about 70%
- reactivity with Kras when BME is titrated in (Kras): reactivity of the compound being reduced
- product formed with BME (reduction of the free compound peak) [3]: about 25%
